From ChEMBL document CHEMBL1201862, “PubChem BioAssay data set” (2004)
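All cell lines were grown in 96-well plates and treated with compound for 48 hours. The concentration for 50% growth inhibition is given as GI50.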 The source made the active and inactive calls. Rule as the data show it: active = GI50 up to about 1.1 µM and inactive = higher.

How the values were obtained:
Assay in all cases: DTP human tumour cell line panel, 48 h
ACHN = test system: ACHN
UACC-257 = test system: UACC-257
SK-MEL-5 = test system: SK-MEL-5
SN12C = test system: SN12C
SF-295 = test system: SF-295
SNB-75 = test system: SNB-75
NCI-H226 = test system: NCI-H226
HL-60 = test system: HL-60
CAKI-1 = test system: CAKI-1
TK-10 = test system: TK-10
CCRF-CEM = test system: CCRF-CEM
NCI-H460 = test system: NCI-H460
OVCAR-8 = test system: OVCAR-8
A549 = test system: A549
MDA-MB-435 = test system: MDA-MB-435
IGROV-1 = test system: IGROV-1
DU-145 = test system: DU-145
NCI/ADR-RES = test system: NCI/ADR-RES
SW-620 = test system: SW-620
M14 = test system: M14

| Compound | GI50 (ACHN) | GI50 (UACC-257) | GI50 (SK-MEL-5) | GI50 (SN12C) | GI50 (SF-295) | GI50 (SNB-75) | GI50 (NCI-H226) | GI50 (HL-60) | GI50 (CAKI-1) | GI50 (TK-10) | GI50 (CCRF-CEM) | GI50 (NCI-H460) | GI50 (OVCAR-8) | GI50 (A549) | GI50 (MDA-MB-435) | GI50 (IGROV-1) | GI50 (DU-145) | GI50 (NCI/ADR-RES) | GI50 (SW-620) | GI50 (M14) |
| --- | --- | --- | --- | --- | --- | --- | --- | --- | --- | --- | --- | --- | --- | --- | --- | --- | --- | --- | --- | --- |
| CS(=O)(=O)OCCn1c(=O)n(CCOS(C)(=O)=O)c(=O)n(CCOS(C)(=O)=O)c1=O | > 100 µM (inactive) | > 100 µM (inactive) | > 100 µM (inactive) | > 100 µM (inactive) | > 100 µM (inactive) | > 100 µM (inactive) | > 100 µM (inactive) | > 100 µM (inactive) | > 100 µM (inactive) | > 100 µM (inactive) | > 100 µM (inactive) | > 100 µM (inactive) | > 100 µM (inactive) | > 100 µM (inactive) | > 100 µM (inactive) | > 100 µM (inactive) | > 100 µM (inactive) | > 100 µM (inactive) | > 100 µM (inactive) | – |
| CC(=O)C1=C(C)N(c2ccc(C)cc2)C2(O)C=CC(O)=C3C(=O)c4ccccc4C(=O)C312 (stereo not drawn) | 11.8 µM (inactive) | 10.6 µM (inactive) | 7.4 µM (inactive) | 13.6 µM (inactive) | 13.7 µM (inactive) | 19.4 µM (inactive) | 22.8 µM (inactive) | 7.76 µM (inactive) | 13.5 µM (inactive) | 23.4 µM (inactive) | – | 7.23 µM (inactive) | 16.1 µM (inactive) | 18.6 µM (inactive) | 2.33 µM (inactive) | 7.38 µM (inactive) | 15.4 µM (inactive) | 3.78 µM (inactive) | 4.81 µM (inactive) | 18.6 µM (inactive) |
| C=CC[C@H]1[C@H](O[Si](C)(C)C(C)(C)C)C=CC(=O)[C@@H]1CC(=O)N(Cc1ccccc1)Cc1ccccc1 | 15 µM (inactive) | 11.5 µM (inactive) | 7.83 µM (inactive) | 18.8 µM (inactive) | 15.1 µM (inactive) | – | 11.7 µM (inactive) | 5.48 µM (inactive) | 12.4 µM (inactive) | 19.2 µM (inactive) | 7.85 µM (inactive) | 20.6 µM (inactive) | 16.1 µM (inactive) | 20.5 µM (inactive) | 20.9 µM (inactive) | 20.8 µM (inactive) | 27.2 µM (inactive) | 10.8 µM (inactive) | 26.7 µM (inactive) | 18.1 µM (inactive) |
| CN(C)CCSCCO | > 100 µM (inactive) | > 100 µM (inactive) | > 100 µM (inactive) | > 100 µM (inactive) | > 100 µM (inactive) | > 100 µM (inactive) | > 100 µM (inactive) | 97.1 µM (inactive) | > 100 µM (inactive) | > 100 µM (inactive) | – | > 100 µM (inactive) | > 100 µM (inactive) | > 100 µM (inactive) | > 100 µM (inactive) | > 100 µM (inactive) | > 100 µM (inactive) | > 100 µM (inactive) | > 100 µM (inactive) | > 100 µM (inactive) |
| COc1ccc(S(=O)(=O)Nc2ccc(-c3csc(N4C(=O)/C(=C/c5ccccc5[N+](=O)[O-])N=C4c4ccccc4)n3)cc2)cc1Cl | 50.5 µM (inactive) | 38.6 µM (inactive) | 43.2 µM (inactive) | > 100 µM (inactive) | 47 µM (inactive) | > 100 µM (inactive) | > 100 µM (inactive) | 23.2 µM (inactive) | > 100 µM (inactive) | 53.3 µM (inactive) | – | 40.8 µM (inactive) | 35.3 µM (inactive) | 33 µM (inactive) | > 100 µM (inactive) | 16.1 µM (inactive) | 83 µM (inactive) | 86.1 µM (inactive) | 46 µM (inactive) | 24.4 µM (inactive) |
| CCOc1cc(C2CC(c3ccc(NS(=O)(=O)c4cc([N+](=O)[O-])ccc4C)cc3)=NN2c2ccc([N+](=O)[O-])cc2[N+](=O)[O-])ccc1O (stereo not drawn) | 6.76 µM (inactive) | 19.1 µM (inactive) | 10.4 µM (inactive) | 3.15 µM (inactive) | 12.1 µM (inactive) | 5.82 µM (inactive) | 7.31 µM (inactive) | 40.9 µM (inactive) | 16.9 µM (inactive) | 15.7 µM (inactive) | 43.7 µM (inactive) | – | 5.22 µM (inactive) | 6.55 µM (inactive) | 11.6 µM (inactive) | 12.5 µM (inactive) | 12.8 µM (inactive) | 8.04 µM (inactive) | 21.8 µM (inactive) | 12.3 µM (inactive) |
| CC(=O)CC1(C)OC(N)=C(C#N)C1(C#N)C#N (stereo not drawn) | > 100 µM (inactive) | > 100 µM (inactive) | 42.1 µM (inactive) | > 100 µM (inactive) | > 100 µM (inactive) | 47 µM (inactive) | > 100 µM (inactive) | – | 59.4 µM (inactive) | > 100 µM (inactive) | 44.7 µM (inactive) | – | > 100 µM (inactive) | > 100 µM (inactive) | > 100 µM (inactive) | > 100 µM (inactive) | > 100 µM (inactive) | > 100 µM (inactive) | > 100 µM (inactive) | > 100 µM (inactive) |
| O=[N+]([O-])/C(C(Cl)=C(Cl)Cl)=C(\N1CCOCC1)n1nnc2ccccc21 | 18.7 µM (inactive) | 20.7 µM (inactive) | 17.6 µM (inactive) | 19.3 µM (inactive) | 17.7 µM (inactive) | 17.5 µM (inactive) | 26.8 µM (inactive) | – | 17.7 µM (inactive) | 29.3 µM (inactive) | – | 19.4 µM (inactive) | – | 16.7 µM (inactive) | 17 µM (inactive) | – | 18.1 µM (inactive) | 25.9 µM (inactive) | – | 17.2 µM (inactive) |
| CC(=O)Oc1cc(C(F)(F)F)ccc1C(=O)OC1(C)OC(=O)c2ccc(C(F)(F)F)cc2O1 (stereo not drawn) | > 100 µM (inactive) | > 100 µM (inactive) | – | 97.5 µM (inactive) | > 100 µM (inactive) | 9.86 µM (inactive) | > 100 µM (inactive) | > 100 µM (inactive) | > 100 µM (inactive) | > 100 µM (inactive) | > 100 µM (inactive) | > 100 µM (inactive) | > 100 µM (inactive) | > 100 µM (inactive) | > 100 µM (inactive) | > 100 µM (inactive) | > 100 µM (inactive) | > 100 µM (inactive) | > 100 µM (inactive) | > 100 µM (inactive) |
| C=C(C)/C=C/C(O)[C@](C)(O)[C@H]1[C@H](O)C[C@@]2(C)[C@@H]3CCc4c(cc(OC5OC(CO)C(O)C(O)C5O)c(O)c4C)C3(C)C(=O)C[C@]12C (stereo partly drawn) | > 100 µM (inactive) | > 100 µM (inactive) | > 100 µM (inactive) | > 100 µM (inactive) | > 100 µM (inactive) | > 100 µM (inactive) | > 100 µM (inactive) | – | > 100 µM (inactive) | > 100 µM (inactive) | > 100 µM (inactive) | > 100 µM (inactive) | > 100 µM (inactive) | > 100 µM (inactive) | > 100 µM (inactive) | > 100 µM (inactive) | > 100 µM (inactive) | > 100 µM (inactive) | > 100 µM (inactive) | > 100 µM (inactive) |
| O=C(O)C1C2C=CC(O2)C1C(=O)Nc1ccccc1 (stereo not drawn) | > 100 µM (inactive) | > 100 µM (inactive) | > 100 µM (inactive) | > 100 µM (inactive) | > 100 µM (inactive) | > 100 µM (inactive) | > 100 µM (inactive) | – | > 100 µM (inactive) | > 100 µM (inactive) | > 100 µM (inactive) | – | > 100 µM (inactive) | > 100 µM (inactive) | > 100 µM (inactive) | > 100 µM (inactive) | > 100 µM (inactive) | > 100 µM (inactive) | > 100 µM (inactive) | > 100 µM (inactive) |
| CCCCCC(/C=C/[C@@H]1[C@@H](C(O)CCCCCC(=O)OC)C(=O)C[C@H]1O[Si](C)(C)C(C)(C)C)OCOCCOC (stereo partly drawn) | 15.3 µM (inactive) | 7.85 µM (inactive) | 14.5 µM (inactive) | 19.7 µM (inactive) | 17.9 µM (inactive) | 10.4 µM (inactive) | 18.2 µM (inactive) | – | 17.2 µM (inactive) | 16.6 µM (inactive) | 2.62 µM (inactive) | 29.7 µM (inactive) | 16.5 µM (inactive) | 24.6 µM (inactive) | 8 µM (inactive) | 6.28 µM (inactive) | 18 µM (inactive) | 18.9 µM (inactive) | 5.12 µM (inactive) | 13.8 µM (inactive) |
| NCC#CCNCCCN1CC1 | > 100 µM (inactive) | > 100 µM (inactive) | > 100 µM (inactive) | > 100 µM (inactive) | > 100 µM (inactive) | < 0.01 µM (active) | > 100 µM (inactive) | > 100 µM (inactive) | > 100 µM (inactive) | > 100 µM (inactive) | – | > 100 µM (inactive) | > 100 µM (inactive) | > 100 µM (inactive) | > 100 µM (inactive) | > 100 µM (inactive) | > 100 µM (inactive) | > 100 µM (inactive) | > 100 µM (inactive) | > 100 µM (inactive) |
| O=C(Nc1ccc(Cl)cc1)c1cc(S(=O)(=O)Nc2n[nH]c(=O)n2-c2ccccc2)c(S)cc1Cl | – | > 100 µM (inactive) | > 100 µM (inactive) | > 100 µM (inactive) | > 100 µM (inactive) | – | > 100 µM (inactive) | > 100 µM (inactive) | > 100 µM (inactive) | – | > 100 µM (inactive) | > 100 µM (inactive) | > 100 µM (inactive) | > 100 µM (inactive) | > 100 µM (inactive) | > 100 µM (inactive) | > 100 µM (inactive) | > 100 µM (inactive) | > 100 µM (inactive) | > 100 µM (inactive) |
